The values below are quoted from earlier work in US20170252373A1, “COMBINATION THERAPY FOR THE TREATMENT OF HAIR LOSS” (priority 2016, published 2017).

In the data set the test system is male-pattern hair loss. The following applies: within three months of starting treatment; also at 24 and 48 months with continued use.

In the case of `CC(C)(C)NC(=O)[C@H]1CC[C@H]2[C@@H]3CC[C@H]4NC(=O)C=C[C@]4(C)[C@H]3CC[C@]12C` [finasteride], the “hair on the scalp” value was “Increased hair on the scalp”.
